Data reported in EP4786466A1, “QUINAZOLINE DERIVATIVE, SALT THEREOF, AND PHARMACEUTICAL COMPOSITION COMPRISING SAME AS ACTIVE INGREDIENT” (Korea Research Institute of Chemical Technology, priority 2023, dated 2025).
Like-named read-outs stand apart in the source and are kept apart here.

Assays:
[1] = molecular target: T1, Recombinant GST-TAG-MASTL (Homo sapiens, UniProt Q96GX5); assay: HTRF-based kinase assay (HTRF KinEASE assay kit); format: biochemical; conditions: for activity at 10 µM: read-out: MASTL activity (%) HTRF; for activity at 1 µM: read-out: MASTL activity (%) HTRF (1 µM)
T1 construct: GST; purchased Thermo Fisher Scientific
T1 sequence (Q96GX5 1-879): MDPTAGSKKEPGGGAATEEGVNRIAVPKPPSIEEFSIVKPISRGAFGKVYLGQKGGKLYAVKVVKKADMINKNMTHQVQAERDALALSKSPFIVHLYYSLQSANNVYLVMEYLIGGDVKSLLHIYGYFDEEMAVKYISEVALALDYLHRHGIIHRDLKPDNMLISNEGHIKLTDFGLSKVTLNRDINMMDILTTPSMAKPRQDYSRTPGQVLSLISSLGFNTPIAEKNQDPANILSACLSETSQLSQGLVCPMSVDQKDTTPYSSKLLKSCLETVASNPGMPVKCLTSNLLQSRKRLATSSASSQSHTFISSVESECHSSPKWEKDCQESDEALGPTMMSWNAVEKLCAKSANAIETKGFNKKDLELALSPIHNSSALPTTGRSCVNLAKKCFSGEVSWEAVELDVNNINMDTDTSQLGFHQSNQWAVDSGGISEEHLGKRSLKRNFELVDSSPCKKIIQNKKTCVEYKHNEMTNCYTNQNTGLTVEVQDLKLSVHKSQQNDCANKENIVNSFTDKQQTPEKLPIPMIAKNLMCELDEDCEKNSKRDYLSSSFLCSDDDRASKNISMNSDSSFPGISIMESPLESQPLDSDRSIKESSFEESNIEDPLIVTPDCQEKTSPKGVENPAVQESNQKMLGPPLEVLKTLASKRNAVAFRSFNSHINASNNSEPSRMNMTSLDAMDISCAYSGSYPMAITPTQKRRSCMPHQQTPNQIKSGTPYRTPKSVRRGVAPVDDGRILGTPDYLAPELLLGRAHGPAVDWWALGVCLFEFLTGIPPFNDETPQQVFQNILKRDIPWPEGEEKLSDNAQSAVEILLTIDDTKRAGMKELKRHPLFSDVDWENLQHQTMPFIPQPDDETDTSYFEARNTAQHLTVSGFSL
From the text: Recombinant GST-TAG-MASTL (Thermo Fisher Scientific, MA, USA) was used for HTRF-based kinase assays. The HTRF KinEASE assay kit (CisBio, MA, USA) was used according to the manufacturer's instructions.

[2] = tested on: pENSA; assay: pENSA level by immunofluorescence (described method: in vitro kinase analysis with GST-tag-MASTL and His-tag-ENSA); format: cell-based; conditions: for pENSA (%) Immunofluor ecense (1 µM): compound 1 µM
Experimental: Two recombinant GST-tag-MASTL (Thermo Fisher Scientific) and His-tag-ENSA (Sino Biological Inc., Beijing, China) were used for in vitro kinase analysis. In vitro kinase analysis was performed as described in the literature [Front Oncol 2020, 10, 571601, 39-202021-10-20doi:10.3389/fonc.2020.571601.].
Phosphorylated ENSA (pENSA), which is activated by phosphorylation by MASTL, can be utilized as a biomarker as it is expected that its activity will be inhibited along with the inhibition of MASTL. In the cell viability assay, MCF7 refers to a breast cancer cell line, and MCF10A refers to a normal breast […] cell line.

[3] = in vitro; conditions: human
Experimental: (§1) MCF7 breast cancer cell lines and MCF10A normal breast cancer cell lines were treated with serial dilutions of the compounds of the present invention ranging from 1 µM to 15.63 nM for 72 hours. Cell viability was measured by the WST-8 assay (Cyto XTM cell viability assay kit; LPS solution, Daejeon, Korea) according to the manufacturer's instructions.

[4] = tested on: MCF7 breast cancer cell lines; assay: Cell viability analysis, WST-8 assay, MCF7; conditions: for viability at 1.25 µM: read-out: Cell viability (%) WST-8, MCF7, footnote a: concentration 1.25 µM, 72 hours; for viability at 1 µM: read-out: Cell viability (%) WST-8, MCF7 (1 µM), compound 1 µM, 72 hours
Experimental: as §1

## FC(F)(F)c1cc(Nc2nc(Nc3cc(C4CC4)[nH]n3)c3ccccc3n2)ccc1Cl [compound 4k, M^2-(4-chloro-3-(trifluoromethyl)phenyl)-M^4-(5-cyclopropyl-1G-pyrazol-3-yl)quinazoline-2,4-diamine]
[1]; footnote b: concentration 10 µM
  activity at 10 µM: 59.2%
[2]
  pENSA (%) Immunofluor ecense (1 µM): 105%
[3]; mcf10a cells
  viability at 1.25 µM: 115%
[4]; Homo sapiens, MCF7, 72 h
  viability at 1.25 µM: 80.8%

## NS(=O)(=O)c1ccc(Nc2nc(Nc3cc(C4CC4)[nH]n3)c3ccccc3n2)cc1 [compound 4g, 4-((4-((5-cyclopropyl-1G-pyrazol-3-yl)amino)quinazolin-2-yl)amino)benzenesulfonamide]
[1]
  IC50: 189 nM
  activity at 10 µM: 18.6%
[2]
  pENSA (%) Immunofluor ecense (1 µM): 10.4%
[2]; read-out: IC50(nM) pENSA
  IC50: 344 nM
[3]; mcf10a cells
  viability at 1.25 µM: 9.3%
[4]; Homo sapiens, MCF7, 72 h
  viability at 1.25 µM: 85.3%
[4]; Homo sapiens, MCF7, 72 h, read-out: IC50 Cell viability (MCF7)
  IC50: 2700 nM

## c1ccc(CN2CC3CC2CN3c2nc(Nc3cn[nH]c3)c3ccccc3n2)cc1 (stereo not shown) [compound 28f, 2-(5-benzyl-2,5-diazabicyclo[2.2.1]heptan-2-yl)-M-(1G-pyrazol-4-yl)quinazolin-4-amine]
[1]; compound 1 µM
  activity at 1 µM: 118%
[2]
  pENSA (%) Immunofluor ecense (1 µM): 85.1%
[3]; mcf10a cells
  viability at 1 µM: 101%
[4]; Homo sapiens, MCF7, 72 h
  viability at 1 µM: 110%

## Clc1nc(Nc2cc(C3CC3)[nH]n2)c2ccccc2n1 [compound 2a, 2-chloro-M-(5-cyclopropyl-1G-pyrazol-3-yl)quinazolin-4-amine]
[1]; compound 1 µM
  activity at 1 µM: 73.4%
[2]
  pENSA (%) Immunofluor ecense (1 µM): 105%
[3]; mcf10a cells
  viability at 1 µM: 93.3%
[4]; Homo sapiens, MCF7, 72 h
  viability at 1 µM: 106%

## CN(C)S(=O)(=O)c1ccc(Nc2nc(Nc3ccc(C(F)(F)F)cc3)nc3ccccc23)cc1 [compound 25c, M,M-dimethyl-4-((2-((4-(trifluoromethyl)phenyl)amino)quinazolin-4-yl)amino)benzenesulfonamide]
[1]
  activity at 1 µM: 108%
[2]
  pENSA (%) Immunofluor ecense (1 µM): 96.5%
[3]; mcf10a cells
  viability at 1 µM: 90%
[4]; Homo sapiens, MCF7, 72 h
  viability at 1 µM: 86.4%

## CCCc1ccc(S(=O)(=O)N2CC3CC2CN3c2nc(Nc3cc(C4CC4)[nH]n3)c3ccccc3n2)cc1 (stereo not shown) [compound 15x, M-(5-cyclopropyl-1G-pyrazol-3-yl)-2-(5-((4-propylphenyl)sulfonyl)-2,5-diazabicyclo[2.2.1]heptan-2-yl)quinazolin-4-amine]
[1]; compound 1 µM
  activity at 1 µM: 68.4%
[2]
  pENSA (%) Immunofluor ecense (1 µM): 94.0%
[3]; mcf10a cells
  viability at 1 µM: 98.3%
[4]; Homo sapiens, MCF7, 72 h
  viability at 1 µM: 122%

## CN(C)S(=O)(=O)c1ccc(Nc2nc(Nc3ccc(C#N)cc3)nc3ccccc23)cc1 [compound 25b, 4-((2-((4-cyanophenyl)amino)quinazolin-4-yl)amino)-M,M-dimethylbenzenesulfonamide]
[1]; compound 1 µM
  activity at 1 µM: 91.6%
[2]
  pENSA (%) Immunofluor ecense (1 µM): 102%
[3]; mcf10a cells
  viability at 1 µM: 58.1%
[4]; Homo sapiens, MCF7, 72 h
  viability at 1 µM: 86.4%

## C1=C(c2ccccc2)CCN(c2nc(Nc3cc(C4CC4)[nH]n3)c3ccccc3n2)C1 [compound 6e, M-(5-cyclopropyl-1G-pyrazol-3-yl)-2-(4-phenyl-3,6-dihydropyridin-1(2G)-yl)quinazolin-4-amine]
[1]; HTRF, read-out: IC50(nM) MASTL activity
  IC50: 569 nM
[1]; compound 1 µM
  activity at 1 µM: 43.3%
[2]
  pENSA (%) Immunofluor ecense (1 µM): 97%
[3]; mcf10a cells
  viability at 1 µM: 91.4%
[4]; Homo sapiens, MCF7, 72 h
  viability at 1 µM: 90.9%

## CC(C)(C)OC(=O)NCCCCNC(=O)c1ccc(Nc2nc(Nc3cc(C4CC4)[nH]n3)c3ccccc3n2)cc1 [4y, sdqs-butyl (4-(4-((4-((5-cyclopropyl-1G-pyrazol-3-yl)amino)quinazolin-2-yl)amino)benzamido)butyl)carbamate]
[1]; compound 1 µM
  activity at 1 µM: 75.3%
[2]
  pENSA (%) Immunofluor ecense (1 µM): 164%
[3]; mcf10a cells
  viability at 1 µM: 80.2%
[4]; Homo sapiens, MCF7, 72 h
  viability at 1 µM: 78.7%

## CC(C)CN1CC2CC1CN2c1nc(Nc2cn[nH]c2)c2ccccc2n1 (stereo not shown) [compound 28e, 2-(5-isobutyl-2,5-diazabicyclo[2.2.1]heptan-2-yl)-M-(1G-pyrazol-4-yl)quinazolin-4-amine]
[1]; compound 1 µM
  activity at 1 µM: 103%
[2]
  pENSA (%) Immunofluor ecense (1 µM): 95.8%
[3]; mcf10a cells
  viability at 1 µM: 105%
[4]; Homo sapiens, MCF7, 72 h
  viability at 1 µM: 97.3%

## CC(C)(C)OC(=O)NCCCCCNC(=O)c1ccc(Nc2nc(Nc3cc(C4CC4)[nH]n3)c3ccccc3n2)cc1 [4z, sdqs-butyl (5-(4-((4-((5-cyclopropyl-1G-pyrazol-3-yl)amino)quinazolin-2-yl)amino)benzamido)pentyl)carbamate]
[1]; compound 1 µM
  activity at 1 µM: 85.3%
[2]
  pENSA (%) Immunofluor ecense (1 µM): 188%
[3]; mcf10a cells
  viability at 1 µM: 77.7%
[4]; Homo sapiens, MCF7, 72 h
  viability at 1 µM: 86.3%

## CC(C)(C)OC(=O)N1CCC2(CC1)CCN(c1nc(Nc3cc(C4CC4)[nH]n3)c3ccccc3n1)CC2 [compound 6b, sdqs-butyl 9-(4-((5-cyclopropyl-1G-pyrazol-3-yl)amino)quinazolin-2-yl)-3,9-diazaspiro[5.5]undecane-3-carboxylate]
[1]; compound 1 µM
  activity at 1 µM: 43.5%
[2]
  pENSA (%) Immunofluor ecense (1 µM): 98.2%
[3]; mcf10a cells
  viability at 1 µM: 122%
[4]; Homo sapiens, MCF7, 72 h
  viability at 1 µM: 116%

## Cc1n[nH]c(C)c1Nc1nc(Nc2ccc(CC#N)cc2)nc2ccccc12 [compound 3d, 2-(4-((4-((3,5-dimethyl-1G-pyrazol-4-yl)amino)quinazolin-2-yl)amino)phenyl)acetonitrile]
[1]
  activity at 1 µM: 93.7%
[3]; mcf10a cells
  viability at 1.1 µM: 101%
[4]; Homo sapiens, MCF7, 72 h, read-out: Cell viability (%) WST-8, MCF7, footnote d: concentration 1.1 µM, 72 hours
  viability at 1.1 µM: 132%

## CNC(=O)c1ccc(Nc2nc(Nc3cc(C4CC4)[nH]n3)c3ccccc3n2)cc1 [4ae, 4-((4-((5-cyclopropyl-1G-pyrazol-3-yl)amino)quinazolin-2-yl)amino)-M-methylbenzamide]
[1]; compound 1 µM
  activity at 1 µM: 41.7%
[3]; mcf10a cells
  viability at 1 µM: 70.5%
[4]; Homo sapiens, MCF7, 72 h
  viability at 1 µM: 72.8%

## N#Cc1ccc(CNc2nc(Nc3cc(C4CC4)[nH]n3)c3ccccc3n2)cc1 [compound 4ch, 4-(((4-((5-cyclopropyl-1G-pyrazol-3-yl)amino)quinazolin-2-yl)amino)methyl)benzonitrile]
[1]
  activity at 1 µM: 43%
[3]; mcf10a cells
  viability at 1 µM: 32%
[4]; Homo sapiens, MCF7, 72 h
  viability at 1 µM: 73.6%

## N#CCc1ccc(Nc2nc(Nc3ccc(Cl)nn3)c3ccccc3n2)cc1 [compound 3i, 2-(4-((4-((6-chloropyridazin-3-yl)amino)quinazolin-2-yl)amino)phenyl)acetonitrile]
[1]; compound 1 µM
  activity at 1 µM: 126%
[3]
  viability at 1 µM: 51.8%
[4]; Homo sapiens, MCF7, 72 h
  viability at 1 µM: 95.6%

## CC(C)(C)OC(=O)N1CC2C(C1)C2Nc1nc(Nc2cc(C3CC3)[nH]n2)c2ccccc2n1 (stereo not shown) [compound 4cg, tert-butyl 6-((4-((5-cyclopropyl-1H-pyrazol-3-yl)amino)quinazolin-2-yl)amino)-3-azabicyclo[3.1.0]hexane-3-carboxylate]
[1]; compound 1 µM, 1 µM
  MASTL activity (%) HTRF (1 µM): 76.4%
[3]
  viability at 1 µM: 117%
[4]; compound 1 µM, 72 hours, 1 µM
  Cell viability (%) WST-8, MCF7 (1 µM): 73.6%

## O=C1CSC(Nc2nc(Nc3ccccc3)nc3ccccc23)=N1 [compound 26b, 2-((2-(phenylamino)quinazolin-4-yl)amino)thiazol-4(5H)-one]
[1]; compound 1 µM
  activity at 1 µM: 112%
[3]
  viability at 1 µM: 98.8%
[4]; Homo sapiens, MCF7, 72 h
  viability at 1 µM: 95.8%

## c1ccc2c(Nc3cc(C4CC4)[nH]n3)nc(Nc3ccc4cn[nH]c4c3)nc2c1 [compound 4de, N^4-(5-cyclopropyl-1H-pyrazol-3-yl)-N^2-(1H-indazol-6-yl)quinazoline-2,4-diamine]
[1]; compound 1 µM
  activity at 1 µM: 31.8%
[3]
  viability at 1 µM: 24%
[4]; Homo sapiens, MCF7, 72 h
  viability at 1 µM: 44.2%

## N#CCc1ccc(Nc2nc(NC3=NC(=O)CS3)c3ccccc3n2)cc1 [compound 3j, 2-(4-((4-((4-oxo-4,5-dihydrothiazol-2-yl)amino)quinazolin-2-yl)amino)phenyl)acetonitrile]
[1]; compound 1 µM
  activity at 1 µM: 92.5%
[3]
  viability at 1 µM: 84.2%
[4]; Homo sapiens, MCF7, 72 h
  viability at 1 µM: 108%
